We go through 22 compounds from patent US11312719B2, “9-substituted amino triazolo quinazoline derivatives as adenosine receptor antagonists, pharmaceutical compositions and their use” (Merck Sharp & Dohme Corp., priority 2018, dated 2022).

One may read the IC50 as the concentration that inhibits the measured activity by half. A lower IC50 goes with higher potency.

For assay [1], the target named is human A2a adenosine receptor (Homo sapiens (Human), UniProt P29274). Description: A2a receptor affinity radioligand binding assay ([3H] SCH58261). The settings on record: for IC50: membranes from HEK293 or CHO cells expressing human A2a receptor. Put shortly:
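Membranes from HEK293 or CHO cells expressing human A2a were preincubated 15–30 min at room temperature with compound, then incubated 60 min at room temperature with [3H]SCH58261 (diluted to 4 nM) in 50 mM Tris pH 7.4, 10 mM MgCl2, 0.005% Tween20. Bound radioactivity was collected by filtration; nonspecific binding defined with 1 μM ZM241385; IC50 from 4-parameter logistic fit.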

In assay [2] the target is human A2b adenosine receptor (Homo sapiens (Human), UniProt P29275). Description: A2b radioligand filtration binding assay. As to conditions: for IC50: membranes from HEK293 cells expressing human A2b receptor. Summed up:
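Membranes from HEK293 cells expressing human A2b receptor preincubated with compound 15 to 30 min at room temperature, then tritiated proprietary A2b antagonist (diluted to 14 nM before addition) added in PBS pH 7.4 for 60 min at room temperature. Bound radioactivity by filtration and scintillation; non-specific binding with 20 μM NECA; IC50 by 4-parameter logistic fit.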

Each structure is given as a SMILES string.

Chain of human A2a adenosine receptor (P29274 whole entry): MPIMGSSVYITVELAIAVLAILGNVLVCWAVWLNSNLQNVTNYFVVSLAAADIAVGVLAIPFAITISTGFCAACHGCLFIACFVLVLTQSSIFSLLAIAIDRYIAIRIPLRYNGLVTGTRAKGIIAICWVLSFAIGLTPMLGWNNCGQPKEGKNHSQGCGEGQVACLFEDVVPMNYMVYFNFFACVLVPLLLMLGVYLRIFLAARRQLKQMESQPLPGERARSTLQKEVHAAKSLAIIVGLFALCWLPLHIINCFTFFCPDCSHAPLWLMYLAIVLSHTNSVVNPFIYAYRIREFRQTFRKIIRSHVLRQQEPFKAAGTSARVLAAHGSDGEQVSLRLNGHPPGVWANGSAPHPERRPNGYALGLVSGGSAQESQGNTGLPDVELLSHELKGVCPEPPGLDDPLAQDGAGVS
Chain of human A2b adenosine receptor (P29275 whole entry): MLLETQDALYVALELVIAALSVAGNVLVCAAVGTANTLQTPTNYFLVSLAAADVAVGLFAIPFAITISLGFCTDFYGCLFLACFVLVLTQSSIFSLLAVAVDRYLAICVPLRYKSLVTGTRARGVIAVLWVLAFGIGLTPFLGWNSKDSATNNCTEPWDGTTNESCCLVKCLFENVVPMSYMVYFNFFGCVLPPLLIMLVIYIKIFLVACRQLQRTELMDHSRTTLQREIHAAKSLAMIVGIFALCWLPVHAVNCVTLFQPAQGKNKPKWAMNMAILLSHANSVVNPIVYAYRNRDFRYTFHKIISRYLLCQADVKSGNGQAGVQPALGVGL

Regarding `COc1cc2nc(N)n3nc(C4CN(c5cnn(CC(C)(C)O)c5)CCC4C)nc3c2cc1F` (single isomer, unassigned) [Example 67, 1-(4-((3R or 3S,4R or 4S)-3-(5-amino-9-fluoro-8-methoxy-[1,2,4]methylpiperidin-1-yl)-1H-pyrazol-1-yl)-2-methylpropan-2-ol], in assay [1], the “A2A binding % Inh. @ 1000 nM” value came to 44% Inh. The “A2B binding % Inh. @ 10000 nM” value in assay [2] (@ 10000 nM) is listed as 31% Inh.

For `COc1cc2nc(N)n3nc(C4CCCCN(c5cnn(CC(C)(C)O)c5)C4)nc3c2cc1F` (single isomer, unassigned) [Example 61, (S or R)-1-(4-(3-(5-amino-9-fluoro-8-methoxy-[1,2,4]triazolo[1,5-c]quinazolin-2-yl)azepan-1-yl)-1H-pyrazol-1-yl)-2-methylpropan-2-ol], the IC50 is 5 nM in assay [1] and 99 nM in assay [2].

As for `COc1cc2nc(N)n3nc([C@@H]4CCCN(c5cn(C6CCOCC6)nc5C(F)F)C4)nc3c2cc1F` [Example 19, (R)-2-(1-(3-(difluoromethyl)-1-(tetrahydro-2H-pyran-4-yl)-1H-pyrazol-4-yl)piperidin-3-yl)-9-fluoro-8-methoxy-[1,2,4]triazolo[1,5-c]quinazolin-5-amine], the IC50 was found to be 0.7 nM in assay [1] and 87.3 nM in assay [2].

With `COc1cc(F)cc2c1nc(N)n1nc([C@@H]3CCCN(c4cnn(CC(C)(C)O)c4C)C3)nc21` [Example 29, (R)-1-(4-(3-(5-amino-9-fluoro-7-methoxy-[1,2,4]triazolo [1,5-c]quinazolin-2-yl)piperidin-1-yl)-5-methyl-1H-pyrazol-1-yl)-2-methylpropan-2-ol], the IC50 stood at 1.5 nM in assay [1] and 301 nM in assay [2].

Turning to `CCn1cc([C@]2(O)CCC[C@H](c3nc4c5cc(F)c(OC)cc5nc(N)n4n3)C2)cn1` (single isomer, unassigned) [Example 147, (1S or 1R,3S or 3R)-3-(5-amino-9-fluoro-8-methoxy-[1,2,4]triazolo[1,5-c]quinazolin-2-yl)-1-(1-ethyl-1H-pyrazol-4-yl)cyclohexan-1-ol], the IC50 in assay [1] was 870 nM; in assay [2], 6330 nM.

Consider `COc1cc(F)cc2c1nc(N)n1nc(C3CCC(C)N(c4cnn(CC(C)(C)O)c4)C3)nc21` (single isomer, unassigned) [Example 118, 1-(4-((2R or 2S,5R or 5S)-5-(5-amino-9-fluoro-7-methoxy-[1,2,4]triazolo[1,5-c]quinazolin-2-yl)-2-methylpiperidin-1-yl)-1H-pyrazol-1-yl)-2-methylpropan-2-ol], for which the IC50 in assay [1] came out at 1.9 nM; in assay [2], 387 nM.

For the compound `COc1cc2nc(N)n3nc([C@@H]4CCCN(c5ccc(OC(C)C)nc5)C4)nc3c2cc1F` [Example 23, (R)-9-fluoro-2-(1-(6-isopropoxypyridin-3-yl)piperidin-3-yl)-8-methoxy-[1,2,4]triazolo[1,5-c]quinazolin-5-amine], the IC50 in assay [1] amounted to 2 nM; in assay [2] it was 15.9 nM.

As to `COc1cc2nc(N)n3nc([C@@H]4CCCN(c5cnn(CC(F)(F)F)c5)C4)nc3c2cc1F` [Example 5, (R)-9-fluoro-8-methoxy-2-(1-(1-(2,2,2-trifluoroethyl)-1H-pyrazol-4-yl)piperidin-3-yl)[1,2,4]triazolo[1,5-c]quinazolin-5-amine], the IC50 in assay [1] came out at 3.3 nM; in assay [2], 1.6 nM.

On to `COc1cc(F)cc2c1nc(N)n1nc(C3CCCCN(c4cnn(CC(C)(C)O)c4)C3)nc21` (racemic) [Example 39, rac-1-(4-(3-(5-amino-9-fluoro-7-methoxy-[1,2,4]triazolo [1,5-c]quinazoln-2-yl)azepan-1-yl)-1H-pyrazol-1-yl)-2-methylpropan-2-ol], for which the results for the IC50 in assay [1] and in assay [2] were 1.1 nM and 43.3 nM, respectively.

As for `COc1cc(F)cc2c1nc(N)n1nc(C3CC(F)CN(c4cn(CC(C)(C)O)nc4C)C3)nc21` (single isomer, unassigned) [Example 77, 1-(4-((3S,5S or 3R,5R)-3-(5-amino-9-fluoro-7-methoxy-[1,2,4]triazolo[1,5-c]quinazolin-2-yl)-5-fluoropiperidin-1-yl)-3-methyl-1H-pyrazol-1-yl)-2-methylpropan-2-ol], the IC50 in assay [1] was determined as 0.4 nM; in assay [2] it was 108 nM.

Consider `Cc1cc(Cl)cc2c1nc(N)n1nc(C3CCCN(c4cnn(C)c4)C3)nc21` (single isomer, unassigned) [Example 105, (R or S)-9-chloro-7-methyl-2-(1-(1-methyl-1H-pyrazol-4-yl)piperidin-3-yl)-[1,2,4]triazolo[1,5-c]quinazolin-5-amine], for which the figures for the IC50 in assay [1] and in assay [2] were 329 nM and 743 nM, respectively.

With `COc1cc2nc(N)n3nc([C@@H]4CCCN(c5cnn(C)c5)C4)nc3c2cc1F` [Example 2, (R)-9-fluoro-8-methoxy-2-(1-(1-methyl-1H-pyrazol-4-yl)piperidin-3-yl)-[1,2,4]triazolo[1,5-c]quinazolin-5-amine], the IC50 in assay [1] came to 3.7 nM; in assay [2], 9.4 nM.

Take `COc1cc2nc(N)n3nc(C4(F)CCN(c5cnn(CC(C)(C)O)c5)C4)nc3c2cc1F` (single isomer, unassigned) [Example 63, (S or R)-1-(4-(3-(5-amino-9-fluoro-8-methoxy-[1,2,4]triazolo[1,5-c]quinazolin-2-yl)-3-fluoropyrrolidin-1-yl)-1H-pyrazol-1-yl)-2-methylpropan-2-ol]: the IC50 in assay [1] amounted to 242 nM; in assay [2] it was 2430 nM.

On to `COc1cc2nc(N)n3nc([C@@H]4CC[C@H](C)N(c5cnn(CC(C)(C)O)c5)C4)nc3c2cc1F` [Example 109, 1-(4-((2S,5R)-5-(5-amino-9-fluoro-8-methoxy-[1,2,4]triazolo[1,5-c]quinazolin-2-yl)-2-methylpiperidin-1-yl)-1H-pyrazol-1-yl)-2-methylpropan-2-ol], for which the IC50 in assay [1] came out at 0.7 nM; in assay [2], 7.8 nM.

In the case of `COc1ccc2nc(N)n3nc(C4CCCN(c5cnn(C)c5)C4)nc3c2c1` (single isomer, unassigned) [Example 108, (R or S)-9-methoxy-2-(1-(1-methyl-1H-pyrazol-4-yl)piperidin-3-yl)-[1,2,4]triazolo[1,5-c]quinazolin-5-amine], in assay [1], the “A2A binding % Inh. @ 1000 nM” value was determined as 36% Inh. Further, in assay [2], the IC50 turned out to be 8470 nM.

`COc1cc(Cl)cc2c1nc(N)n1nc(C3CCCN(c4cnn(C)c4)C3)nc21` (single isomer, unassigned) [Example 104, (R or S)-9-chloro-7-methoxy-2-(1-(1-methyl-1H-pyrazol-4-yl)piperidin-3-yl)-[1,2,4]triazolo[1,5-c]quinazolin-5-amine]: the IC50 in assay [1] was found to be 17.7 nM; in assay [2] it was 766 nM.

`COc1cc2nc(N)n3nc([C@H]4CC[C@@H](C)N(c5cn(CC6(O)CCC6)nc5C)C4)nc3c2cc1F` (single isomer, unassigned) [Example 50, 1-((4-((2R,5S or 2S,5R)-5-(5-amino-9-fluoro-8-methoxy-[1,2,4]triazolo[1,5-c]quinazolin-2-yl)-2-methylpiperidin-1-yl)-3-methyl-1H-pyrazol-1-yl)methyl)cyclobutan-1-ol]: the IC50 worked out at 18.3 nM in assay [1] and 1890 nM in assay [2].

For the compound `COc1cc2nc(N)n3nc(C4CCC(C)N(c5cnn(C6CCCC6O)c5)C4)nc3c2cc1F` (single isomer, unassigned) [Example 89, (1S or 1R,2S or 2R)-2-(4-((2S,5R or 2R,5S)-5-(5-amino-9-fluoro-8-methoxy-[1,2,4]triazolo[1,5-c]quinazolin-2-yl)-2-methylpiperidin-1-yl)-1H-pyrazol-1-yl)cyclopentan-1-ol], the figures for the IC50 in assay [1] and in assay [2] were 0.2 nM and 3.4 nM, respectively.

On to `COc1cc2nc(N)n3nc(C4CCC(C)N(c5cnn(C6CCOCC6)c5)C4)nc3c2cc1F` (single isomer, unassigned) [Example 44, 9-fluoro-8-methoxy-2-((3R,6S or 3S,6R)-6-methyl-1-(1-(tetrahydro-2H-pyran-4-yl)-1H-pyrazol-4-yl)piperidin-3-yl)-[1,2,4]triazolo[1,5-c]quinazolin-5-amine], for which the IC50 was 1.3 nM in assay [1] and 20.4 nM in assay [2].

In the case of `COc1cc2nc(N)n3nc([C@@H]4CCCN(c5cnn([C@H]6CC[C@]6(C)O)c5)C4)nc3c2cc1F` (single isomer, unassigned) [Example 98, (1S or 1R,2S or 2R)-2-(4-((R)-3-(5-amino-9-fluoro-8-methoxy-[1,2,4]triazolo[1,5-c]quinazolin-2-yl)piperidin-1-yl)-1H-pyrazol-1-yl)-1-methylcyclobutan-1-ol], the figures for the IC50 in assay [1] and in assay [2] were 0.9 nM and 116 nM, respectively.

On to `COc1cc2nc(N)n3nc([C@@H]4CCCN(c5ncn(C(C)C(C)(C)O)n5)C4)nc3c2cc1F` (single isomer, unassigned) [Example 65, (S or R)-3-(3-((R)-3-(5-amino-9-fluoro-8-methoxy-[1,2,4]triazolo[1,5-c]quinazolin-2-yl)piperidin-1-yl)-1H-1,2,4-triazolo-1-yl)-2-methylbutan-2-ol], for which the IC50 in assay [1] is 1.2 nM; in assay [2], 228 nM.

Consider `COc1cc(F)cc2c1nc(N)n1nc([C@@H]3CCCN(c4cn(CC(C)(C)O)nc4C)C3)nc21` [Example 30, (R)-1-(4-(3-(5-amino-9-fluoro-7-methoxy-[1,2,4]triazolo [1,5-c]quinazolin-2-yl)piperidin-l-yl)-3-methyl-1H-pyrazol-1-yl)-2-methylpropan-2-ol], for which the IC50 turned out to be 0.4 nM in assay [1] and 97.9 nM in assay [2].
